Values after ≈ are worked out from the molar mass of the structure shown.
Columns and labels:
[1] = Selectivity index, ratio of CC50 for african green monkey BGMK cells to EC50 for poliovirus; type: toxicity, cell-based; details: read-out: Ratio CC50/EC50
Enterovirus C [2] = test: Antiviral activity against Poliovirus 10694 serotype PV1 obtained from immunodeficient chronic excretor infected in […] LLC-MK2 cells assessed as inhibition of viral-replication induced cytopathic effect; type: functional, organism-based; details: 10694 serotype PV1, LLC-MK2
Coxsackievirus B4 = test: Antiviral activity against Coxsackievirus serotype B4 infected in african green monkey BGMK cells assessed as inhibition of virus induced cytopathic effect after 18 to 24 hrs; type: functional, organism-based; details: Enterovirus B
Enterovirus C [3] = test: Antiviral activity against Poliovirus 10222 serotype PV1 obtained from immunodeficient chronic excretor infected in […] LLC-MK2 cells assessed as inhibition of viral-replication induced cytopathic effect; type: functional, organism-based; details: 10222 serotype PV1, LLC-MK2
Enterovirus C [4] = test: Antiviral activity against Poliovirus 10221 serotype PV2 obtained from immunodeficient chronic excretor infected in […] LLC-MK2 cells assessed as inhibition of viral-replication induced cytopathic effect; type: functional, organism-based; details: 10221 serotype PV2, LLC-MK2
Coxsackievirus B3 = test: Antiviral activity against Coxsackievirus serotype B3 infected in african green monkey BGMK cells assessed as inhibition of virus induced cytopathic effect after 18 to 24 hrs; type: functional, organism-based; details: Enterovirus B
Enterovirus C [5] = test: Antiviral activity against Poliovirus Brunhilde serotype PV1 infected in […] LLC-MK2 cells assessed as inhibition of viral-replication induced cytopathic effect; type: functional, organism-based
Enterovirus C [6] = test: Antiviral activity against Poliovirus 10225 serotype PV1 obtained from immunodeficient chronic excretor infected in […] LLC-MK2 cells assessed as inhibition of viral-replication induced cytopathic effect; type: functional, organism-based; details: 10225 serotype PV1, LLC-MK2
Enterovirus C [7] = test: Antiviral activity against Poliovirus 10224 serotype PV1 obtained from immunodeficient chronic excretor infected in […] LLC-MK2 cells assessed as inhibition of viral-replication induced cytopathic effect; type: functional, organism-based; details: 10224 serotype PV1, LLC-MK2
Coxsackievirus B2 = test: Antiviral activity against Coxsackievirus serotype B2 infected in african green monkey BGMK cells assessed as inhibition of virus induced cytopathic effect after 18 to 24 hrs; type: functional, organism-based; details: Enterovirus B
HeLa = test: Cytotoxicity against human HeLa cells after 18 to 24 hrs by MTT assay; type: cell-based
Enterovirus C [8] = test: Antiviral activity against Poliovirus 10220 serotype PV2 obtained from circulating vaccine infected in […] LLC-MK2 cells assessed as inhibition of viral-replication induced cytopathic effect; type: functional, organism-based; details: 10220 serotype PV2, LLC-MK2
Enterovirus C [9] = test: Antiviral activity against Poliovirus 10804 serotype PV3 obtained from immunodeficient chronic excretor infected in […] LLC-MK2 cells assessed as inhibition of viral-replication induced cytopathic effect; type: functional, organism-based; details: 10804 serotype PV3, LLC-MK2
Enterovirus C [10] = test: Antiviral activity against Poliovirus 10695 serotype PV1 obtained from immunodeficient chronic excretor infected in […] LLC-MK2 cells assessed as inhibition of viral-replication induced cytopathic effect; type: functional, organism-based; details: 10695 serotype PV1, LLC-MK2
Enterovirus C [11] = test: Antiviral activity against Poliovirus 10242 serotype PV1 obtained from circulating vaccine infected in […] LLC-MK2 cells assessed as inhibition of viral-replication induced cytopathic effect; type: functional, organism-based; details: 10242 serotype PV1, LLC-MK2
Coxsackievirus B1 = test: Antiviral activity against Coxsackievirus serotype B1 infected in african green monkey BGMK cells assessed as inhibition of virus induced cytopathic effect after 18 to 24 hrs; type: functional, organism-based; details: Enterovirus B
Enterovirus C [12] = test: Antiviral activity against Poliovirus Saukett serotype PV3 infected in […] LLC-MK2 cells assessed as inhibition of viral-replication induced cytopathic effect; type: functional, organism-based
Human enterovirus 70 = test: Antiviral activity against Enterovirus serotype 70 infected in african green monkey BGMK cells assessed as inhibition of virus induced cytopathic effect after 18 to 24 hrs; type: functional, cell-based, enterovirus D70; details: Enterovirus D
Enterovirus C [13] = test: Antiviral activity against Poliovirus 10232 serotype PV2 obtained from circulating vaccine infected in […] LLC-MK2 cells assessed as inhibition of viral-replication induced cytopathic effect; type: functional, organism-based; details: 10232 serotype PV2, LLC-MK2
[14] = Solubility of the compound; type: physicochemical
Enterovirus C [15] = test: Antiviral activity against Poliovirus 10231 serotype PV2 obtained from circulating vaccine infected in […] LLC-MK2 cells assessed as inhibition of viral-replication induced cytopathic effect; type: functional, organism-based; details: 10231 serotype PV2, LLC-MK2
Enterovirus C [16] = test: Antiviral activity against Poliovirus PV2-P712 serotype PV2 obtained from immunodeficient chronic excretor infected in […] LLC-MK2 cells assessed as inhibition of viral-replication induced cytopathic effect; type: functional, organism-based
Enterovirus C [17] = test: Antiviral activity against Poliovirus Leon serotype PV3 infected in […] LLC-MK2 cells assessed as inhibition of viral-replication induced cytopathic effect; type: functional, organism-based
Enterovirus C [18] = test: Antiviral activity against Poliovirus 10226 serotype PV2 obtained from immunodeficient chronic excretor infected in […] LLC-MK2 cells assessed as inhibition of viral-replication induced cytopathic effect; type: functional, organism-based; details: 10226 serotype PV2, LLC-MK2
Enterovirus C [19] = test: Antiviral activity against Poliovirus PV3-Leon serotype PV3 vaccine-derived infected in […] LLC-MK2 cells assessed as inhibition of viral-replication induced cytopathic effect; type: functional, organism-based
Enterovirus C [20] = test: Antiviral activity against Poliovirus 10692 serotype PV1 obtained from circulating vaccine infected in […] LLC-MK2 cells assessed as inhibition of viral-replication induced cytopathic effect; type: functional, organism-based; details: 10692 serotype PV1, LLC-MK2
Enterovirus C [21] = test: Antiviral activity against Poliovirus 10228 serotype PV2 obtained from immunodeficient chronic excretor infected in […] LLC-MK2 cells assessed as inhibition of viral-replication induced cytopathic effect; type: functional, organism-based; details: 10228 serotype PV2, LLC-MK2
Enterovirus C [22] = test: Antiviral activity against Poliovirus MEF-1 serotype PV2 infected in […] LLC-MK2 cells assessed as inhibition of viral-replication induced cytopathic effect; type: functional, organism-based; details: MEF-1 serotype PV2, LLC-MK2
enterovirus D68 = test: Antiviral activity against Enterovirus serotype 68 infected in african green monkey BGMK cells assessed as inhibition of virus induced cytopathic effect after 18 to 24 hrs; type: functional, organism-based; details: Enterovirus D

COc1ccc(OCc2ccc(COc3c(Cl)cccc3Cl)cc2)c(Cl)c1
selectivity ratio [1]: 75 | EC50 (Enterovirus C [2]): 0.014 µM | EC50 (Coxsackievirus B4): 3.79 µM | EC50 (Enterovirus C [3]): 0.015 µM | EC50 (Enterovirus C [4]): 0.027 µM | EC50 (Coxsackievirus B3): 3.79 µM | EC50 (Enterovirus C [5]): 0.018 µM | EC50 (Enterovirus C [6]): 0.017 µM | EC50 (Enterovirus C [7]): 0.069 µM | EC50 (Coxsackievirus B2): 3.79 µM | Activity (HeLa): > 50 µg/mL | EC50 (Enterovirus C [8]): 0.01 µM | EC50 (Enterovirus C [9]): 0.042 µM | EC50 (Enterovirus C [10]): 0.008 µM | EC50 (Enterovirus C [11]): 0.017 µM | EC50 (Coxsackievirus B1): 3.79 µM | EC50 (Enterovirus C [12]): 0.062 µM | MIC90 (Human enterovirus 70): 1.42 µM (≈ 0.602 µg/mL) | EC50 (Human enterovirus 70; BGMK): 3.47 µM | EC50 (Enterovirus C [13]): 0.019 µM | solubility [14]: 14 µM (≈ 5.93 µg/mL) | EC50 (Enterovirus C [15]): 0.028 µM | EC50 (Enterovirus C [16]): 0.016 µM | EC50 (Enterovirus C [17]): 0.109 µM | EC50 (Enterovirus C [18]): 0.019 µM | EC50 (Enterovirus C [19]): 0.02 µM | EC50 (Enterovirus C [20]): 0.029 µM | EC50 (Enterovirus C [21]): 0.126 µM | EC50 (Enterovirus C [22]): 0.026 µM | MIC90 (enterovirus D68): 1.42 µM (≈ 0.602 µg/mL) | EC50 (enterovirus D68; BGMK): 3.47 µM

Source: ChEMBL document CHEMBL1649227, “In vitro antiviral activity of V-073 against polioviruses” (Antimicrob Agents Chemother, 2009)
